{"source": "patent US7776292B2", "about": "(priority 2004, dated 2010)", "format_in_all_cases": "cell-based", "key": {"weaponized spores [1]": {"tested_on": "weaponized spores"}, "weaponized spores [2]": {"tested_on": "weaponized spores", "remark": "listed apart in the source"}, "[3]": {"tested_on": "conventional biological indicator spores"}, "weaponized spores [4]": {"tested_on": "weaponized spores", "remark": "listed apart in the source"}, "[5]": {"tested_on": "conventional biological indicator spores", "remark": "listed apart in the source"}, "weaponized spores [6]": {"tested_on": "weaponized spores", "remark": "listed apart in the source"}, "[7]": {"tested_on": "conventional biological indicator spores", "remark": "listed apart in the source"}, "weaponized spores [8]": {"tested_on": "weaponized spores", "remark": "listed apart in the source"}, "[9]": {"tested_on": "TP 10 (conventional bioindicator spores)"}, "weaponized spores [10]": {"tested_on": "weaponized spores", "remark": "listed apart in the source"}}, "note": "Where “and” joins values, the source holds several entries; their conditions need not be identical. Equal values may be shown once."}
{"smiles": "[O][Cl+][O-]", "note": "[chlorine dioxide]", "values": [{"measurement": "filters showing viable spores following decontamination (out of 16)", "setting": "weaponized spores [1]", "result": "none"}, {"measurement": "filters with viable spores/filters, Humidification time 1 hour", "setting": "weaponized spores [2]", "result": "0/2"}, {"measurement": "filters with viable spores/filters, Humidification time 2 hours", "setting": "weaponized spores [2]", "result": "0/2"}, {"measurement": "filters with viable spores/filters, Humidification time 3 hours", "setting": "weaponized spores [2]", "result": "0/2"}, {"measurement": "filters with viable spores/filters, Humidification time 1 hour", "setting": "[3]", "result": "0/2"}, {"measurement": "filters with viable spores/filters, Humidification time 2 hours", "setting": "[3]", "result": "0/2"}, {"measurement": "filters with viable spores/filters, Humidification time 3 hours", "setting": "[3]", "result": "0/2"}, {"measurement": "filters with viable spores/filters, ClO2 Concentration 500 ppm", "setting": "weaponized spores [4]", "result": "3/4 and 2/2; and 2/2"}, {"measurement": "filters with viable spores/filters, ClO2 Concentration 1000 ppm", "setting": "weaponized spores [4]", "result": "0/2"}, {"measurement": "filters with viable spores/filters, ClO2 Concentration 2500 ppm", "setting": "weaponized spores [4]", "result": "0/2"}, {"measurement": "viable spore count, ClO2 Concentration 500 ppm", "setting": "weaponized spores [4]", "result": "1.43 × 10^3"}, {"measurement": "filters with viable spores/filters, ClO2 Concentration 500 ppm", "setting": "[5]", "result": "0/2"}, {"measurement": "filters with viable spores/filters, ClO2 Concentration 1000 ppm", "setting": "[5]", "result": "0/2"}, {"measurement": "filters with viable spores/filters, ClO2 Concentration 2500 ppm", "setting": "[5]", "result": "0/2"}, {"measurement": "viability in culture, Humidification Time 1 hour", "setting": "weaponized spores [6]", "result": "Positive"}, {"measurement": "viability in culture, Humidification Time 2 hours", "setting": "weaponized spores [6]", "result": "Positive"}, {"measurement": "viability in culture, Humidification Time 3 hours", "setting": "weaponized spores [6]", "result": "Positive"}, {"measurement": "viability in culture, Humidification Time 1 hour", "setting": "[7]", "result": "Negative"}, {"measurement": "viability in culture, Humidification Time 2 hours", "setting": "[7]", "result": "Negative"}, {"measurement": "viability in culture, Humidification Time 3 hours", "setting": "[7]", "result": "Negative"}, {"measurement": "viable spores after Cycle 1", "setting": "weaponized spores [8]", "result": "5.7 × 10^4"}, {"measurement": "viable spores after Cycle 2", "setting": "weaponized spores [8]", "result": 0}, {"measurement": "viable spores after Cycle 3", "setting": "weaponized spores [8]", "result": "3.3 × 10^1"}, {"measurement": "viable spores after Cycle 1", "setting": "[9]", "result": "4.3 × 10^5"}, {"measurement": "viable spores after Cycle 2", "setting": "[9]", "result": "1.3 × 10^3"}, {"measurement": "viable spores after Cycle 3", "setting": "[9]", "result": "7.2 × 10^2"}, {"measurement": "10^−4 (Dilution on agar)", "setting": "weaponized spores [10]", "result": "TNTC"}]}
